Data published in the CheMixHub viscosity set.
Several values for one entry are separate records, joined by “and”; a condition that tells them apart may be missing. Equal values may be shown once.

Assay: xn = mol fraction of the nth substance listed

CN[C@@H]1[C@H](O[C@H]2[C@H](O[C@H]3[C@H](O)[C@@H](O)[C@H](NC(=N)N)[C@@H](O)[C@@H]3NC(=N)N)O[C@@H](C)[C@]2(O)C=O)O[C@@H](CO)[C@H](O)[C@H]1O.CN[C@@H]1[C@H](O[C@H]2[C@H](O[C@H]3[C@H](O)[C@@H](O)[C@H](NC(=N)N)[C@@H](O)[C@@H]3NC(=N)N)O[C@@H](C)[C@]2(O)C=O)O[C@@H](CO)[C@H](O)[C@H]1O.O=S(=O)(O)O.O=S(=O)(O)O.O=S(=O)(O)O + O
Settings | viscosity
293.15 K, 101.3 kPa, x1 = 0.00018 | 1.053 mPa·s
293.15 K, 101.3 kPa, x1 = 0.0003604 | 1.102 mPa·s
293.15 K, 101.3 kPa, x1 = 0.00054 | 1.156 mPa·s
293.15 K, 101.3 kPa, x1 = 0.0007203 | 1.207 mPa·s
293.15 K, 101.3 kPa, x1 = 0.0009005 | 1.266 mPa·s
293.15 K, 101.3 kPa, x1 = 0.00108 | 1.328 mPa·s
293.15 K, 101.3 kPa, x1 = 0.00126 | 1.393 mPa·s
293.15 K, 101.3 kPa, x1 = 0.001439 | 1.446 mPa·s
298.15 K, 101 kPa, x1 = 7.6e-05 | 0.9256 mPa·s
298.15 K, 101 kPa, x1 = 0.0001 | 0.9434 mPa·s
298.15 K, 101 kPa, x1 = 0.00015 | 0.9504 mPa·s
298.15 K, 101 kPa, x1 = 0.000216 | 0.9744 mPa·s
298.15 K, 101 kPa, x1 = 0.000286 | 0.9974 mPa·s
298.15 K, 101 kPa, x1 = 0.0003 | 0.9849 mPa·s
298.15 K, 101 kPa, x1 = 0.000358 | 1.02 mPa·s
298.15 K, 101.3 kPa, x1 = 0.00018 | 0.939 mPa·s
298.15 K, 101.3 kPa, x1 = 0.0003604 | 0.985 mPa·s
298.15 K, 101.3 kPa, x1 = 0.00054 | 1.037 mPa·s
298.15 K, 101.3 kPa, x1 = 0.0007203 | 1.089 mPa·s
298.15 K, 101.3 kPa, x1 = 0.0009005 | 1.147 mPa·s
298.15 K, 101.3 kPa, x1 = 0.00108 | 1.192 mPa·s
298.15 K, 101.3 kPa, x1 = 0.00126 | 1.249 mPa·s
298.15 K, 101.3 kPa, x1 = 0.001439 | 1.296 mPa·s
298.15 K, 101.33 kPa, x1 = 7e-07 | 0.8964 mPa·s
298.15 K, 101.33 kPa, x1 = 9e-07 | 0.8973 mPa·s
298.15 K, 101.33 kPa, x1 = 1e-06 | 0.8981 mPa·s and 0.899 mPa·s and 0.8998 mPa·s
298.15 K, 101.33 kPa, x1 = 1.8e-06 | 0.9034 mPa·s
298.15 K, 101.33 kPa, x1 = 2e-06 | 0.9025 mPa·s and 0.9043 mPa·s
298.15 K, 101.33 kPa, x1 = 2.2e-06 | 0.9051 mPa·s
303.15 K, 101 kPa, x1 = 7.6e-05 | 0.8296 mPa·s
303.15 K, 101 kPa, x1 = 0.0001 | 0.8493 mPa·s
303.15 K, 101 kPa, x1 = 0.00015 | 0.8528 mPa·s
303.15 K, 101 kPa, x1 = 0.000216 | 0.8752 mPa·s
303.15 K, 101 kPa, x1 = 0.000286 | 0.8971 mPa·s
303.15 K, 101 kPa, x1 = 0.0003 | 0.8904 mPa·s
303.15 K, 101 kPa, x1 = 0.000358 | 0.919 mPa·s
303.15 K, 101.3 kPa, x1 = 0.00018 | 0.844 mPa·s
303.15 K, 101.3 kPa, x1 = 0.0003604 | 0.887 mPa·s
303.15 K, 101.3 kPa, x1 = 0.00054 | 0.936 mPa·s
303.15 K, 101.3 kPa, x1 = 0.0007203 | 0.981 mPa·s
303.15 K, 101.3 kPa, x1 = 0.0009005 | 1.035 mPa·s
303.15 K, 101.3 kPa, x1 = 0.00108 | 1.079 mPa·s
303.15 K, 101.3 kPa, x1 = 0.00126 | 1.126 mPa·s
303.15 K, 101.3 kPa, x1 = 0.001439 | 1.171 mPa·s
303.15 K, 101.33 kPa, x1 = 5e-07 | 0.8016 mPa·s
303.15 K, 101.33 kPa, x1 = 7e-07 | 0.8024 mPa·s
303.15 K, 101.33 kPa, x1 = 9e-07 | 0.8032 mPa·s
303.15 K, 101.33 kPa, x1 = 1e-06 | 0.804 mPa·s and 0.8048 mPa·s and 0.8056 mPa·s
303.15 K, 101.33 kPa, x1 = 1.8e-06 | 0.8089 mPa·s
303.15 K, 101.33 kPa, x1 = 2e-06 | 0.8064 mPa·s and 0.8097 mPa·s
303.15 K, 101.33 kPa, x1 = 2.2e-06 | 0.8105 mPa·s
305.15 K, 101 kPa, x1 = 0.0002 | 0.826 mPa·s
305.15 K, 101 kPa, x1 = 0.0004 | 0.8609 mPa·s
308.15 K, 101 kPa, x1 = 7.6e-05 | 0.7487 mPa·s
308.15 K, 101 kPa, x1 = 0.0001 | 0.7667 mPa·s
308.15 K, 101 kPa, x1 = 0.00015 | 0.771 mPa·s
308.15 K, 101 kPa, x1 = 0.000216 | 0.7923 mPa·s
308.15 K, 101 kPa, x1 = 0.000286 | 0.8134 mPa·s
308.15 K, 101 kPa, x1 = 0.0003 | 0.8077 mPa·s
308.15 K, 101 kPa, x1 = 0.000358 | 0.834 mPa·s
308.15 K, 101.3 kPa, x1 = 0.00018 | 0.764 mPa·s
308.15 K, 101.3 kPa, x1 = 0.0003604 | 0.806 mPa·s
308.15 K, 101.3 kPa, x1 = 0.00054 | 0.848 mPa·s
308.15 K, 101.3 kPa, x1 = 0.0007203 | 0.893 mPa·s
308.15 K, 101.3 kPa, x1 = 0.0009005 | 0.943 mPa·s
308.15 K, 101.3 kPa, x1 = 0.00108 | 0.984 mPa·s
308.15 K, 101.3 kPa, x1 = 0.00126 | 1.026 mPa·s
308.15 K, 101.3 kPa, x1 = 0.001439 | 1.072 mPa·s
310.15 K, 101 kPa, x1 = 0.0002 | 0.7448 mPa·s
310.15 K, 101 kPa, x1 = 0.0004 | 0.7702 mPa·s
313.15 K, 101 kPa, x1 = 7.6e-05 | 0.6801 mPa·s
313.15 K, 101 kPa, x1 = 0.0001 | 0.6932 mPa·s
313.15 K, 101 kPa, x1 = 0.00015 | 0.7016 mPa·s
313.15 K, 101 kPa, x1 = 0.000216 | 0.722 mPa·s
313.15 K, 101 kPa, x1 = 0.000286 | 0.7425 mPa·s
313.15 K, 101 kPa, x1 = 0.0003 | 0.7345 mPa·s
313.15 K, 101 kPa, x1 = 0.000358 | 0.7623 mPa·s
313.15 K, 101.3 kPa, x1 = 0.00018 | 0.698 mPa·s
313.15 K, 101.3 kPa, x1 = 0.0003604 | 0.739 mPa·s
313.15 K, 101.3 kPa, x1 = 0.00054 | 0.784 mPa·s
313.15 K, 101.3 kPa, x1 = 0.0007203 | 0.822 mPa·s
313.15 K, 101.3 kPa, x1 = 0.0009005 | 0.866 mPa·s
313.15 K, 101.3 kPa, x1 = 0.00108 | 0.904 mPa·s
313.15 K, 101.3 kPa, x1 = 0.00126 | 0.946 mPa·s
313.15 K, 101.3 kPa, x1 = 0.001439 | 0.989 mPa·s
315.15 K, 101 kPa, x1 = 0.0002 | 0.6863 mPa·s
315.15 K, 101 kPa, x1 = 0.0004 | 0.7114 mPa·s
318.15 K, 101 kPa, x1 = 7.6e-05 | 0.6228 mPa·s
318.15 K, 101 kPa, x1 = 0.0001 | 0.6275 mPa·s
318.15 K, 101 kPa, x1 = 0.00015 | 0.6432 mPa·s
318.15 K, 101 kPa, x1 = 0.000216 | 0.6631 mPa·s
318.15 K, 101 kPa, x1 = 0.000286 | 0.683 mPa·s
318.15 K, 101 kPa, x1 = 0.0003 | 0.6686 mPa·s
318.15 K, 101 kPa, x1 = 0.000358 | 0.7027 mPa·s
